{"source": "PubChem BioAssay AID493102", "about": "(Broad Institute, 2011)", "data": [{"tested_on": "SK-MEL-5 TRPM1-promoter luciferase reporter, 24 h", "experiment": "TRPM1 promoter luciferase signal decrease, dose response, MITF inhibitor project, cell-based, SK-MEL-5, cherry-picked, set 4 (AID 493102);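 also: actives lower the luciferase signal so the potency reflects inhibition of reporter expression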", "units": {"AC50": "µM"}, "values": [{"smiles": "COc1ccc(-c2cc3c(nn2)-c2ccccc2C3=O)cc1", "AC50": 4.22}, {"smiles": "Cc1cnc(NC(=O)c2nn(C)cc2[N+](=O)[O-])s1", "AC50": 20.6}, {"smiles": "Cc1ccc(S(=O)(=O)N2CCCCC2)cc1NC(=O)Cn1ncc(Cl)c(Cl)c1=O", "AC50": 6.21}, {"smiles": "O=C(CCl)Nc1cccc(S(=O)(=O)NC2=NCCCCC2)c1", "AC50": 7.85}, {"smiles": "Cc1cc(C)c[n+](C2=C([O-])c3ccccc3C(=O)/C2=N\\S(=O)(=O)c2cccs2)c1", "AC50": 2.95}, {"smiles": "COC(=O)CCS(=O)(=O)c1nc(-c2ccccc2)cc(C(F)(F)F)n1", "AC50": 5.85}, {"smiles": "CC(OC(=O)c1ccc([N+](=O)[O-])s1)C(=O)NC1CCCCC1C", "note": "(configuration not stated)", "AC50": 12}, {"smiles": "O=C(N/N=C/c1cccc2cccnc12)c1ccccc1O", "AC50": 24.8}, {"smiles": "Cc1cccc(N2C(=O)NC(=O)/C(=C\\c3cccn3-c3ccc(Cl)cc3)C2=O)c1", "AC50": 8.91}, {"smiles": "O=C(Nc1ccc(OC(F)(F)F)cc1)c1[nH]ncc1[N+](=O)[O-]", "AC50": 0.601}, {"smiles": "Cc1ccc2sc(N(CCCN(C)C)C(=O)c3ccc(S(=O)(=O)N(C)C4CCCCC4)cc3)nc2c1C", "AC50": 18}, {"smiles": "CCOc1ccc2nc(C)cc(Nc3cccc([N+](=O)[O-])c3)c2c1", "AC50": 17.8}, {"smiles": "N#Cc1c(NC(=O)CSc2ncn[nH]2)sc2c1CCCCC2", "AC50": 0.371}, {"smiles": "CC(C)CC(=O)/C=C/n1c(=S)oc2ccccc21", "AC50": 10.5}, {"smiles": "O=C(c1ccc(S(=O)(=O)Cc2ccccc2Cl)c([N+](=O)[O-])c1)N1CCN(c2ccccn2)CC1", "AC50": 9.49}, {"smiles": "Cc1ccc(C)c(C(=O)Cn2ncc(Cl)c(Cl)c2=O)c1", "AC50": 14.5}, {"smiles": "CC(C)C(=O)NC(c1ccco1)c1ccc2cccnc2c1O", "note": "(configuration not stated)", "AC50": 8.18}, {"smiles": "N#C/C(=C(/O)CCl)c1nc2ccccc2[nH]1", "AC50": 4.6}, {"smiles": "O=C(/C=C/c1cccc([N+](=O)[O-])c1)n1cnc2ccccc21", "AC50": 4.39}, {"smiles": "Oc1c(Cl)cc(Cl)cc1/C=N/Nc1ncc(Br)cn1", "AC50": 7.84}, {"smiles": "Cc1ccccc1Cn1c(=N)n(CC(=O)c2ccc([N+](=O)[O-])cc2)c2ccccc21", "AC50": 5.63}, {"smiles": "COc1cc2c(c(OC)c1OC)-c1ccc(OC)c(=O)cc1C(NC(C)=O)CC2", "note": "(configuration not stated)", "AC50": 0.056}, {"smiles": "O=C1c2cc([N+](=O)[O-])cc3cc([N+](=O)[O-])cc(c23)C(=O)N1c1ccccn1", "AC50": 7.92}, {"smiles": "O=C(c1ccc([N+](=O)[O-])s1)N1CCN(c2ccccn2)CC1", "AC50": 12.2}, {"smiles": "CCOC(=O)N1CCC(NC(=O)C2CCCN(Cc3nc(-c4cccc(C)c4)oc3C)C2)CC1", "note": "(configuration not stated)", "AC50": 34.9}, {"smiles": "O=C(COc1ccccc1)N/N=C/c1ccc([N+](=O)[O-])o1", "AC50": 21.5}, {"smiles": "CCCN(CC(=O)Nc1ccccc1C)C(=O)CCl", "AC50": 4.04}, {"smiles": "CC1CCN(c2nc3ccc(C(=O)O)cc3s2)CC1", "AC50": 1.25}, {"smiles": "OC(CNCC(c1ccc(Cl)cc1Cl)c1c[nH]c2ccccc12)c1ccccc1", "note": "(configuration not stated)", "AC50": 14.7}, {"smiles": "CC1CC(C)C[N+](=C2C=C(N3CCCC3)CC(C)(C)C2)C1", "note": "(configuration not stated)", "AC50": 2.24}, {"smiles": "Cn1cc([N+](=O)[O-])c(C(=O)Nc2cc(Oc3ccccc3)cc([N+](=O)[O-])c2)n1", "AC50": 12.4}, {"smiles": "COc1cc(CNC2CCCC2)cc(Cl)c1OCc1ccccc1Cl", "AC50": 17.7}, {"smiles": "C=CCN1C(=O)NC(=O)/C(=C/C=C/c2ccccc2)C1=O", "AC50": 5.94}, {"smiles": "CC1CC(C)CN(C(=O)/C=C/c2ccc([N+](=O)[O-])s2)C1", "note": "(configuration not stated)", "AC50": 11.9}, {"smiles": "CCN1CCN(c2ccc(NC(=O)c3ccc([N+](=O)[O-])o3)cc2Cl)CC1", "AC50": 9.54}, {"smiles": "CN(c1ccc2nc3ccccc3c(=O)n2n1)C1CCCCC1", "AC50": 1.29}, {"smiles": "O=C(/C=C/c1ccccc1)Nc1cccc(C(=O)O)c1", "AC50": 1.52}, {"smiles": "Oc1ccc(CNc2ccccc2F)c2cccnc12", "AC50": 15.1}, {"smiles": "O=c1c(Cl)c(Cl)cnn1Cc1ccc(F)cc1", "AC50": 8.9}, {"smiles": "COc1ccc2nc(C)cc(SCC(=O)N/N=C/c3ccc(O)cc3O)c2c1", "AC50": 10.1}, {"smiles": "O=C(O)c1cccc(COc2ccccc2Cl)c1", "AC50": 0.756}, {"smiles": "Cc1ccccc1-c1nc(-c2ccccn2)no1", "AC50": 4.18}, {"smiles": "O=C(CCl)Nc1ccc(Sc2ccc(NC(=O)CCl)cc2)cc1", "AC50": 5.98}, {"smiles": "Cn1nnnc1Sc1ncnc2scc(-c3ccc[nH]3)c12", "AC50": 7.32}, {"smiles": "O=C(N/N=C/c1cc(Cl)ccc1O)c1ccncc1", "AC50": 8.98}, {"smiles": "COC(=O)CSC1=C(C#N)C(=O)NC(c2ccccc2)S1", "note": "(configuration not stated)", "AC50": 7.06}, {"smiles": "COc1cc(/C=N/NC(N)=O)c(Br)cc1OCC(=O)Nc1ccccc1C", "AC50": 17.8}, {"smiles": "CC(C)=NOc1cc(NC(=O)CCl)cc([N+](=O)[O-])c1", "AC50": 6.18}, {"smiles": "COc1cc2c(cc1OC)C(C)N(S(=O)(=O)c1cnc(Cl)c(Cl)c1)CC2", "note": "(configuration not stated)", "AC50": 12.1}, {"smiles": "C=CCn1c(C)cc(C2=NNC(=NC(C)(C)C)SC2)c1C", "AC50": 4.09}, {"smiles": "COc1cc2c(c(OC)c1OC)-c1ccc(N(C)CC(OC)OC)c(=O)cc1[C@@H](NC(C)=O)CC2", "AC50": 2.04}, {"smiles": "O=C(O)c1cccc(NC(=S)N/N=C/c2ccccn2)c1", "AC50": 8.63}, {"smiles": "COCCN(CC(=O)NC1CCCCC1)C(=O)/C=C/C(=O)c1ccc(OC)cc1O", "AC50": 5.48}, {"smiles": "COc1ccc(N/N=C/c2c(C(=O)O)ccc3ccccc23)cc1", "AC50": 5.11}, {"smiles": "COc1ccc(CCn2c(=S)[nH]c3cc(C(=O)NCc4ccco4)ccc3c2=O)cc1OC", "AC50": 17.7}, {"smiles": "O=C1NC(=O)N(Cc2ccc(F)cc2)C(=O)/C1=C\\C=C\\c1ccco1", "AC50": 6.63}, {"smiles": "Cc1cc(C(=O)N/N=C/c2ccc([N+](=O)[O-])o2)c(C)o1", "AC50": 4.79}]}]}
